Measured values reported in ChEMBL document CHEMBL4665624, “Synthesis of 5-(4-(1H-phenanthro[9,10-d]imidazol-2-yl)benzylidene)thiazolidine-2,4-dione as promising DNA and serum albumin-binding agents and evaluation of antitumor activity” (Eur J Med Chem, 2019).

Tests used:
CCRF-CEM = assay: Antitumor activity against human CCRF-CEM cells assessed as cell growth inhibition at 10 uM incubated for 48 hrs by sulforhodamine B assay; format: functional; settings: read-out: GI
HL-60(TB) = assay: Antitumor activity against human HL-60(TB) cells assessed as cell growth inhibition at 10 uM incubated for 48 hrs by sulforhodamine B assay; format: functional; settings: read-out: GI
K562 = assay: Antitumor activity against human K562 cells assessed as cell growth inhibition at 10 uM incubated for 48 hrs by sulforhodamine B assay; format: functional; settings: read-out: GI
MOLT-4 = assay: Antitumor activity against human MOLT4 cells assessed as cell growth inhibition at 10 uM incubated for 48 hrs by sulforhodamine B assay; format: functional; settings: read-out: GI
RPMI-8226 = assay: Antitumor activity against human RPMI8226 cells assessed as cell growth inhibition at 10 uM incubated for 48 hrs by sulforhodamine B assay; format: functional; settings: read-out: GI
SR = assay: Antitumor activity against human SR cells assessed as cell growth inhibition at 10 uM incubated for 48 hrs by sulforhodamine B assay; format: functional; settings: read-out: GI
EKVX = assay: Antitumor activity against human EKVX cells assessed as cell growth inhibition at 10 uM incubated for 48 hrs by sulforhodamine B assay; format: functional; settings: read-out: GI
HOP-92 = assay: Antitumor activity against human HOP92 cells assessed as cell growth inhibition at 10 uM incubated for 48 hrs by sulforhodamine B assay; format: functional; settings: read-out: GI
NCI-H226 = assay: Antitumor activity against human NCI-H226 assessed as cell growth inhibition at 10 uM incubated for 48 hrs by sulforhodamine B assay; format: functional; settings: read-out: GI
NCI-H23 = assay: Antitumor activity against human NCI-H23 cells assessed as cell growth inhibition at 10 uM incubated for 48 hrs by sulforhodamine B assay; format: functional; settings: read-out: GI
NCI-H460 = assay: Antitumor activity against human NCI-H460 assessed as cell growth inhibition at 10 uM incubated for 48 hrs by sulforhodamine B assay; format: functional; settings: read-out: GI
NCI-H522 = assay: Antitumor activity against human NCI-H522 cells assessed as cell growth inhibition at 10 uM incubated for 48 hrs by sulforhodamine B assay; format: functional; settings: read-out: GI
COLO 205 = assay: Antitumor activity against human COLO205 cells assessed as cell growth inhibition at 10 uM incubated for 48 hrs by sulforhodamine B assay; format: functional; settings: read-out: GI
HCC 2998 = assay: Antitumor activity against human HCC2998 cells assessed as cell growth inhibition at 10 uM incubated for 48 hrs by sulforhodamine B assay; format: functional; settings: read-out: GI
HCT-116 = assay: Antitumor activity against human HCT116 cells assessed as cell growth inhibition at 10 uM incubated for 48 hrs by sulforhodamine B assay; format: functional; settings: read-out: GI
HCT-15 = assay: Antitumor activity against human HCT15 cells assessed as cell growth inhibition at 10 uM incubated for 48 hrs by sulforhodamine B assay; format: functional; settings: read-out: GI
HT-29 = assay: Antitumor activity against human HT-29 cells assessed as cell growth inhibition at 10 uM incubated for 48 hrs by sulforhodamine B assay; format: functional; settings: read-out: GI
KM12 = assay: Antitumor activity against human KM12 cells assessed as cell growth inhibition at 10 uM incubated for 48 hrs by sulforhodamine B assay; format: functional; settings: read-out: GI
SF-268 = assay: Antitumor activity against human SF268 cells assessed as cell growth inhibition at 10 uM incubated for 48 hrs by sulforhodamine B assay; format: functional; settings: read-out: GI
SF-295 = assay: Antitumor activity against human SF295 cells assessed as cell growth inhibition at 10 uM incubated for 48 hrs by sulforhodamine B assay; format: functional; settings: read-out: GI
SNB-19 = assay: Antitumor activity against human SNB-19 cells assessed as cell growth inhibition at 10 uM incubated for 48 hrs by sulforhodamine B assay; format: functional; settings: read-out: GI
SNB-75 = assay: Antitumor activity against human SNB-75 cells assessed as cell growth inhibition at 10 uM incubated for 48 hrs by sulforhodamine B assay; format: functional; settings: read-out: GI
U-251 = assay: Antitumor activity against human U251 cells assessed as cell growth inhibition at 10 uM incubated for 48 hrs by sulforhodamine B assay; format: functional; settings: read-out: GI
LOX IMVI = assay: Antitumor activity against human LOX IMVI cells assessed as cell growth inhibition at 10 uM incubated for 48 hrs by sulforhodamine B assay; format: functional; settings: read-out: GI
Malme-3M = assay: Antitumor activity against human MALME-3M cells assessed as cell growth inhibition at 10 uM incubated for 48 hrs by sulforhodamine B assay; format: functional; settings: read-out: GI
M14 = assay: Antitumor activity against human M14 cells assessed as cell growth inhibition at 10 uM incubated for 48 hrs by sulforhodamine B assay; format: functional; settings: read-out: GI
MDA-MB-435 = assay: Antitumor activity against human MDA-MB-435 cells assessed as cell growth inhibition at 10 uM incubated for 48 hrs by sulforhodamine B assay; format: functional; settings: read-out: GI
SK-MEL-28 = assay: Antitumor activity against human SK-MEL-28 cells assessed as cell growth inhibition at 10 uM incubated for 48 hrs by sulforhodamine B assay; format: functional; settings: read-out: GI
UACC-62 = assay: Antitumor activity against human UACC-62 cells assessed as cell growth inhibition at 10 uM incubated for 48 hrs by sulforhodamine B assay; format: functional; settings: read-out: GI
IGROV-1 = assay: Antitumor activity against human IGROV1 cells assessed as cell growth inhibition at 10 uM incubated for 48 hrs by sulforhodamine B assay; format: functional; settings: read-out: GI
OVCAR-3 = assay: Antitumor activity against human OVCAR-3 cells assessed as cell growth inhibition at 10 uM incubated for 48 hrs by sulforhodamine B assay; format: functional; settings: read-out: GI
OVCAR-4 = assay: Antitumor activity against human OVCAR-4 cells assessed as cell growth inhibition at 10 uM incubated for 48 hrs by sulforhodamine B assay; format: functional; settings: read-out: GI
OVCAR-8 = assay: Antitumor activity against human OVCAR-8 cells assessed as cell growth inhibition at 10 uM incubated for 48 hrs by sulforhodamine B assay; format: functional; settings: read-out: GI
NCI/ADR-RES = assay: Antitumor activity against human NCI/ADR-RES cells assessed as cell growth inhibition at 10 uM incubated for 48 hrs by sulforhodamine B assay; format: functional; settings: read-out: GI
SK-OV-3 = assay: Antitumor activity against human SK-OV-3 cells assessed as cell growth inhibition at 10 uM incubated for 48 hrs by sulforhodamine B assay; format: functional; settings: read-out: GI
786-0 = assay: Antitumor activity against human 786-0 cells assessed as cell growth inhibition at 10 uM incubated for 48 hrs by sulforhodamine B assay; format: functional; settings: read-out: GI
A498 = assay: Antitumor activity against human A498 cells assessed as cell growth inhibition at 10 uM incubated for 48 hrs by sulforhodamine B assay; format: functional; settings: read-out: GI
ACHN = assay: Antitumor activity against human ACHN cells assessed as cell growth inhibition at 10 uM incubated for 48 hrs by sulforhodamine B assay; format: functional; settings: read-out: GI
RXF 393 = assay: Antitumor activity against human RXF 393 cells assessed as cell growth inhibition at 10 uM incubated for 48 hrs by sulforhodamine B assay; format: functional; settings: read-out: GI
SN12C = assay: Antitumor activity against human SN12C cells assessed as cell growth inhibition at 10 uM incubated for 48 hrs by sulforhodamine B assay; format: functional; settings: read-out: GI
UO-31 = assay: Antitumor activity against human UO-31 cells assessed as cell growth inhibition at 10 uM incubated for 48 hrs by sulforhodamine B assay; format: functional; settings: read-out: GI
PC-3 = assay: Antitumor activity against human PC-3 cells assessed as cell growth inhibition at 10 uM incubated for 48 hrs by sulforhodamine B assay; format: functional; settings: read-out: GI
MCF7 = assay: Antitumor activity against human MCF7 cells assessed as cell growth inhibition at 10 uM incubated for 48 hrs by sulforhodamine B assay; format: functional; settings: read-out: GI
MDA-MB-231 = assay: Antitumor activity against human MDA-MB-231/ATCC cells assessed as cell growth inhibition at 10 uM incubated for 48 hrs by sulforhodamine B assay; format: functional; settings: read-out: GI
Hs-578T = assay: Antitumor activity against human HS 578T cells assessed as cell growth inhibition at 10 uM incubated for 48 hrs by sulforhodamine B assay; format: functional; settings: read-out: GI
BT-549 = assay: Antitumor activity against human BT-549 cells assessed as cell growth inhibition at 10 uM incubated for 48 hrs by sulforhodamine B assay; format: functional; settings: read-out: GI
MDA-MB-468 = assay: Antitumor activity against human MDA-MB-468 cells assessed as cell growth inhibition at 10 uM incubated for 48 hrs by sulforhodamine B assay; format: functional; settings: read-out: GI
SW-620 = assay: Antitumor activity against human SW620 cells assessed as cell growth inhibition at 10 uM incubated for 48 hrs by sulforhodamine B assay; settings: SW-620, 48 h, read-out: GI

With c1cc2ccc3ccc(-c4nc5c6ccccc6c6ccccc6c5[nH]4)c4ccc(c1)c2c34 the inhibition of growth at 10 µM (CCRF-CEM) was 10.3%, the inhibition of growth at 10 µM (HL-60(TB)) was < 10% and the inhibition of growth at 10 µM (K562) was < 10%. It also gave an inhibition of growth at 10 µM (MOLT-4) of 26.8%, an inhibition of growth at 10 µM (RPMI-8226) of 10.6% and an inhibition of growth at 10 µM (SR) of 23.7%. The inhibition of growth at 10 µM (EKVX) was < 10%, the inhibition of growth at 10 µM (HOP-92) was 27.1% and the inhibition of growth at 10 µM (NCI-H226) was 76.2%. For the same molecule, the inhibition of growth at 10 µM (NCI-H23) was < 10%, the inhibition of growth at 10 µM (NCI-H460) was < 10% and the inhibition of growth at 10 µM (NCI-H522) was 17.5%. For the same molecule, the inhibition of growth at 10 µM (COLO 205) was < 10%, the inhibition of growth at 10 µM (HCC 2998) was < 10% and the inhibition of growth at 10 µM (HCT-116) was 16.6%. For the same molecule, the inhibition of growth at 10 µM (HCT-15) was < 10%, the inhibition of growth at 10 µM (HT-29) was < 10% and the inhibition of growth at 10 µM (KM12) was 13.5%. The inhibition of growth at 10 µM (SF-268) was 14.6%, the inhibition of growth at 10 µM (SF-295) was < 10% and the inhibition of growth at 10 µM (SNB-19) was < 10%. The inhibition of growth at 10 µM (SNB-75) was < 10%, the inhibition of growth at 10 µM (U-251) was < 10% and the inhibition of growth at 10 µM (LOX IMVI) was 13.7%. The inhibition of growth at 10 µM (Malme-3M) was < 10%, the inhibition of growth at 10 µM (M14) was < 10% and the inhibition of growth at 10 µM (MDA-MB-435) was < 10%. For the same molecule, the inhibition of growth at 10 µM (SK-MEL-28) was < 10%, the inhibition of growth at 10 µM (UACC-62) was 38.4% and the inhibition of growth at 10 µM (IGROV-1) was 13.2%. The inhibition of growth at 10 µM (OVCAR-3) was < 10%, the inhibition of growth at 10 µM (OVCAR-4) was < 10% and the inhibition of growth at 10 µM (OVCAR-8) was < 10%. The inhibition of growth at 10 µM (NCI/ADR-RES) was < 10%, the inhibition of growth at 10 µM (SK-OV-3) was < 10% and the inhibition of growth at 10 µM (786-0) was < 10%. For the same molecule, the inhibition of growth at 10 µM (A498) was 36.3%, the inhibition of growth at 10 µM (ACHN) was 10.3% and the inhibition of growth at 10 µM (RXF 393) was < 10%. The inhibition of growth at 10 µM (SN12C) was < 10%, the inhibition of growth at 10 µM (UO-31) was 37.2% and the inhibition of growth at 10 µM (PC-3) was 21.2%. For the same molecule, the inhibition of growth at 10 µM (MCF7) was 23.1%, the inhibition of growth at 10 µM (MDA-MB-231) was 23.2% and the inhibition of growth at 10 µM (Hs-578T) was < 10%. For the same molecule, the inhibition of growth at 10 µM (BT-549) was < 10%, the inhibition of growth at 10 µM (MDA-MB-468) was 78.1% and the inhibition of growth at 10 µM (SW-620) was < 10%.
